How the values were obtained:
[1] = tested on: Phakopsora pachyrhizi (F129L); experiment: Protective control of soybean rust on soybeans (PHAKPA P2); type: in vivo; conditions: for % PHAKPA (F129L) Disease level P2 at 4 ppm: protective P2, 4 ppm; for % PHAKPA (F129L) Disease level P2 at 4 ppm / % PHAKPA (F129L) Disease level P2 at 16 ppm: soybean rust F129L; for % PHAKPA (F129L) Disease level P2 at 16 ppm: protective P2, 16 ppm
[2] = tested on: Phakopsora pachyrhizi (F129L); experiment: Protective control of soybean rust on soybeans (PHAKPA P6); type: in vivo; conditions: for % PHAKPA (F129L) Disease level P6 at 4 ppm: protective P6, 4 ppm; for % PHAKPA (F129L) Disease level P6 at 4 ppm / % PHAKPA (F129L) Disease level P6 at 16 ppm: soybean rust F129L; for % PHAKPA (F129L) Disease level P6 at 16 ppm: protective P6, 16 ppm; for PHAKPA (F129L) Disease level (%) P6 at 16 ppm / PHAKPA (F129L) Disease level (%) P6 at 4 ppm: P6 protective, % diseased leaf area
[3] = P2 protective, % diseased leaf area

Compound	% PHAKPA (F129L) Disease level P2 at 4 ppm [1]	% PHAKPA (F129L) Disease level P2 at 16 ppm [1]	% PHAKPA (F129L) Disease level P6 at 4 ppm [2]	% PHAKPA (F129L) Disease level P6 at 16 ppm [2]	PHAKPA (F129L) Disease level (%) P2 at 16 ppm [1, 3]	PHAKPA (F129L) Disease level (%) P6 at 16 ppm [2]	PHAKPA (F129L) Disease level (%) P2 at 4 ppm [1, 3]	PHAKPA (F129L) Disease level (%) P2 at 1 ppm ([1]; P2 protective, 1 ppm, % diseased leaf area)	PHAKPA (F129L) Disease level (%) P6 at 4 ppm [2]
CNC(=O)/C(=N/OC)c1cccc(C)c1CO/N=C(\C)c1c(Cl)cc(Cl)cc1OC(F)(F)F [compound 428]	70%	11%	83%	20%	–	–	–	–	–
CO/N=C(/C(=O)OC)c1ccccc1CO/N=C(\C)c1ccc(C#N)cc1 [reference compound]	–	–	–	–	87%	53%	–	–	–
CNC(=O)/C(=N/OC)c1cccc(C)c1CO/N=C(\C)c1ccc(C)cc1OC(F)(F)F [compound 340]	23%	4%	42%	7%	–	–	–	–	–
CNC(=O)/C(=N/OC)c1cccc(C)c1CO/N=C(\C)c1c(F)cc(F)cc1F [compound 170]	9%	0%	4%	0%	–	–	–	–	–
CO/N=C(/C(=O)OC)c1ccccc1CO/N=C(\C)c1cccc(Cl)c1 [reference compound]	–	–	–	–	73%	70%	–	–	–
CO/N=C(/C(=O)OC)c1cccc(C)c1CO/N=C(/c1cccc(C)c1)C1CC1 [drawing 971, reference compound]	–	–	–	–	–	37%	80%	–	–
CNC(=O)/C(=N/OC)c1cccc(C)c1CO/N=C(\C)c1c(F)ccc(F)c1C(F)(F)F [compound 359]	100%	37%	100%	43%	–	–	–	–	–
CNC(=O)/C(=N/OC)c1ccccc1CO/N=C(\C)c1ccccc1OC [reference compound]	–	–	–	–	87%	80%	–	–	–
CNC(=O)/C(=N/OC)c1cccc(C)c1CO/N=C(\C)c1cc(C(F)(F)F)cc(F)c1F [compound 197]	0%	0%	2%	0%	–	–	–	–	–
CNC(=O)/C(=N/OC)c1cccc(C)c1CO/N=C(\C)c1ccc(OC(F)(F)F)cc1C(F)(F)F [compound 363]	29%	1%	25%	2%	–	–	–	–	–
CO/N=C(/C(=O)OC)c1cccc(C)c1CO/N=C(\C)c1cc(Br)ccc1F [compound 138]	47%	2%	35%	1%	–	–	–	–	–
CO/N=C(/C(=O)OC)c1cccc(C)c1CO/N=C(\C)c1cc(Cl)cc(Cl)c1F [compound 110]	20%	3%	30%	1%	–	–	–	–	–
CO/N=C(/C(=O)OC)c1cccc(C)c1CO/N=C(\C)c1c(C)cccc1F [compound 285]	87%	50%	90%	35%	–	–	–	–	–
CNC(=O)/C(=N/OC)c1cccc(C)c1CO/N=C(\C)c1ccc(Cc2ccccc2)cc1OC(F)(F)F [compound 419]	40%	18%	60%	12%	–	–	–	–	–
CNC(=O)/C(=N/OC)c1cccc(C)c1CO/N=C(\SC)c1cccc(C(F)(F)F)c1 [drawing 984, reference compound]	–	–	–	–	–	–	–	32%	43%
CNC(=O)/C(=N/OC)c1cccc(C)c1CO/N=C(\COC)c1ccccc1 [compound 295]	2%	0%	11%	0%	–	–	–	–	–

Compound	% PHAKPA (F129L) Disease level P2 at 4 ppm [1]	% PHAKPA (F129L) Disease level P2 at 16 ppm [1]	% PHAKPA (F129L) Disease level P6 at 4 ppm [2]	% PHAKPA (F129L) Disease level P6 at 16 ppm [2]	PHAKPA (F129L) Disease level (%) P2 at 16 ppm [1, 3]	PHAKPA (F129L) Disease level (%) P6 at 16 ppm [2]	PHAKPA (F129L) Disease level (%) P2 at 4 ppm [1, 3]	PHAKPA (F129L) Disease level (%) P2 at 1 ppm ([1]; P2 protective, 1 ppm, % diseased leaf area)	PHAKPA (F129L) Disease level (%) P6 at 4 ppm [2]
CO/N=C(/C(=O)OC)c1cccc(C)c1CO/N=C(\C)c1cc(C(F)(F)F)cc(F)c1F [compound 180]	40%	7%	5%	0%	–	–	–	–	–
CNC(=O)/C(=N/OC)c1cccc(C)c1CO/N=C(\C)c1cccc(-c2noc(C(F)(F)F)n2)c1 [compound 67]	67%	2%	80%	30%	–	–	–	–	–
C#Cc1cc(F)ccc1/C(C)=N/OCc1c(C)cccc1/C(=N\OC)C(=O)NC [compound 286]	67%	15%	97%	27%	–	–	–	–	–
CO/N=C(/C(=O)OC)c1cccc(C)c1CO/N=C(\C)c1cccc(OC)c1 [compound 78]	40%	1%	30%	1%	–	–	–	–	–
CNC(=O)/C(=N/OC)c1cccc(C)c1CO/N=C(\C)c1cccc(C2CC2)c1 [compound 299]	53%	13%	53%	22%	–	–	–	–	–
CNC(=O)/C(=N/OC)c1cccc(C)c1CO/N=C(\C)c1cc(C(F)(F)F)cc(C(F)(F)F)c1 [compound 32]	80%	50%	73%	43%	–	–	–	–	–
CO/N=C(/C(=O)OC)c1cccc(C)c1CO/N=C(\C)c1c(C)cccc1C [compound 174]	100%	100%	80%	70%	–	–	–	–	–
CNC(=O)/C(=N/OC)c1cccc(C)c1CO/N=C(\C)c1ccc(F)c(F)c1 [compound 132]	1%	0%	6%	0%	–	–	–	–	–
CNC(=O)/C(=N/OC)c1cccc(C)c1CO/N=C(\C)c1ccc(Oc2ccc(Cl)cc2)cc1C(F)(F)F [compound 336]	63%	20%	50%	17%	–	–	–	–	–
C#Cc1ccccc1/C(C)=N/OCc1c(C)cccc1/C(=N\OC)C(=O)NC [compound 125]	72%	9%	90%	44%	–	–	–	–	–
CO/N=C(/C(=O)OC)c1ccccc1CO/N=C(\C)c1ccccc1C(F)(F)F [reference compound]	–	–	–	–	87%	90%	–	–	–
CNC(=O)/C(=N/OC)c1cccc(C)c1CO/N=C(\C)c1cccc(C#CC(F)(F)F)c1 [compound 57]	25%	8%	43%	15%	–	–	–	–	–
CNC(=O)/C(=N/OC)c1cccc(C)c1CO/N=C(\C)c1ccccc1CC(F)(F)F [compound 223]	4%	0%	28%	0%	–	–	–	–	–
CO/N=C(/C(=O)OC)c1ccccc1CO/N=C(\C)c1cccc(C#N)c1 [reference compound]	–	–	–	–	80%	43%	–	–	–
CNC(=O)/C(=N/OC)c1ccccc1CO/N=C(\C)c1ccc(Cl)c(Cl)c1 [reference compound]	–	–	–	–	–	–	43%	–	77%
CO/N=C(/C(=O)OC)c1cccc(C)c1CO/N=C(\C)c1c(F)cccc1Cl [compound 283]	83%	30%	87%	22%	–	–	–	–	–
